Laboratory results as given in patent US6528517B1, “Synthesis of quinobenzoxazine analogues with topoisomerase II and quadruplex interactions for use as antineoplastic agents” (Board of Regents, The University of Texas System, priority 1998, dated 2003).

Tests used:
human topoisomerase II = target: T1, human topoisomerase II (Homo sapiens, UniProt P11388); experiment: Decatenation assay (catenated to decatenated KDNA); type: biochemical; settings: drug concentration that inhibits 50% of conversion of catenated to decatenated KDNA; read-out: topoisomerase II inhibition IC50
T1 construct: purchased TopoGEN, Inc
Protocol: Kinetoplast DNA (KDNA), human topoisomerase II (170 KDa form), and DNA Unwinding Kit including supercoiled pHOT1 DNA, relaxed DNA marker, buffers, and human topoisomerase I were purchased from TopoGEN, Inc. Agarose was purchased from Fisher. Quinobenzoxazine A-62176 (S-enantiomer) was provided by Abbott Laboratories or prepared by published procedure (Chu and Maleczka, Jr., 1987).
0.25 μg of KDNA was incubated with various concentrations of the quinobenzoxazines in a 20-μl reaction mixture containing 50 mM Tris-HCl (pH 8), 120 mM KCl, 10 mM MgCl2, and 0.5 mM each of ATP, dithiothreitol, and […] BSA for 10 min. Two units of human topoisomerase II (170 KDa form) were added to the mixture, which was then incubated at 37° C. for 30 min. The reaction was terminated with 0.1 volume of stop buffer (5% sarkosyl, 0.025% bromophenol blue, and 50% glycerol). The decatenation products were analyzed on 1% agarose gels run with 0.5 μg/ml ethidium bromide. The gels were scanned by FluoroImager and analyzed by ImageQuaNT software (Molecular Dynamics).

supercoiled pHOT1 DNA = experiment: DNA unwinding assay; type: biochemical; settings: concentration shifting topoisomers to the middle position between relaxed and supercoiled bands
Protocol: A 22 μl mixture of 0.25 μg of supercoiled pHOT1 DNA, 5 units of topoisomerase I in topoisomerase I buffer (provided with the kit) was incubated at 37° C. for 30 min. Two μl of various concentrations of drug was added, and the incubation was continued for another 30 min. The reactions were terminated by addition of SDS to 1%. Proteinase K was added to the reaction mixtures to ca. 50 μg/ml, and the reaction mixtures were incubated for 15-20 min at 56° C. After adding 0.1 volume of 10×gel loading buffer, the reaction mixtures were extracted with an equal volume of CIA (Chloroform:isoamyl Alcohol; 24:1). The samples were loaded on an 1% agarous gel that was cast in TPE buffer (36 mM Tris-HCl, pH 7.8, 1 mM EDTA, 30 mM NaH2PO4) and 0.2 μg/ml Chloroquine. The gel was run in TPE buffer at room temperature at 10 volts for 20 h, destained in water for 15 min, stained in 0.05 μg/ml ethidium bromide for 15 min, and destained again in water for 15 min. The gel was then photographed, scanned by FluoroImager, and analyzed by ImageQuaNT software (Molecular Dynamics).

B16 melanoma = experiment: Cancer cell growth inhibition assay (MTT); type: cell-based, murine
Protocol: (§1) Exponentially growing cells in 0.1 ml medium were seeded on Day 0 in 96-well microtiter plates. On Day 1, 0.1-ml aliquots of medium containing graded concentrations test agent were added in duplicate to the cell plates. After incubation at 37° C. in a humidified incubator, the plates were centrifuged briefly (1-2 min at 1000 rpm), and 100 μl of the growth medium was removed. Cell cultures were incubated with 50 μl of 3-(4,5-dimethylthiazyl-2-yl)-2,5-diphenyltetrazolium bromide MTT, 1 mg/ml in Dubecco's PBS for 4 h at 37° C. The resulting purple formazan precipitate was solubilized with 200 μl of 0.4 N HCl in isopropyl alcohol. Absorbance was quantitated using a Bio-Rad Model 3550 microplate reader at a test wavelength of 570 nm and a reference wavelength of 630 nm. Absorbance values were transferred to a 486 personal computer, and the IC50 values were determined using the computer program EZ-ED50 (Chen et al., 1993).

DU-145 prostate = experiment: Cancer cell growth inhibition assay (MTT); type: cell-based, human
Protocol: as §1

H226 non-small-cell lung = experiment: Cancer cell growth inhibition assay (MTT); type: cell-based, human
Protocol: as §1

HT-29 colon = experiment: Cancer cell growth inhibition assay (MTT); type: cell-based, human
Protocol: as §1

MDA-231 breast = experiment: Cancer cell growth inhibition assay (MTT); type: cell-based, human
Protocol: as §1

Raji lymphoma = experiment: Cancer cell growth inhibition assay (MTT); type: cell-based, human
Protocol: as §1

[1] = test system: human DNA G-quadruplex d(TTAGGG)4; experiment: NMR imino proton titration with G-quadruplex DNA; type: binding; settings: overall stoichometry 1:1
Protocol: (C) Compounds may be selected for their ability to interact with human DNA G-quadruplex as indicated by NMR spectroscopy. The imino proton spectrum (9-12 ppm) of a solution of d(TTAGGG)4 in D2O/H2O (10:90) was determined at 500 MHz. Aliquot of N,N′-bis(2-piperdinoethyl)-3,4,9,10-perylenetetracarboxylic acid diimide were added and the imino proton spectrum recorded.

human telomerase = experiment: Telomerase inhibition assay (HeLa cell extract); type: biochemical
Protocol: The assay used crude HeLa cell extract as the source of human telomerase. It measures the incorporation of ^32P-labeled dGTP into the primer extension of human telomere synthesis (Sun et al., 1998). […] Specific examples of such dual-acting compounds include compounds 2b and 2a (FIG. 3).
The assay was performed by using 5′-end biotinylated d[TTAGGG]3 as the telomere primer. Reaction mixtures (20 μl) containing 5 μl cell lysate (S-100), 50 mM Tris-OAc (pH 8.5), 50 mM K-OAc, 1 mM MgCl2, 5 mM BME, 1 mM spermidine, 1 μM telomere primer, 1.5 μM [α-^32P]-dGTP (800 Ci/mmol), 1 mM dATP, and 1 mM dTTP were incubated at 37° C. for 1 hr, and the reactions were terminated by adding 20 μl of […] streptavidin-coated Dynabeads suspension containing 10 mM Tris-HCl (pH 7.5), 1 mM EDTA, 2M KCl, and a 500 cpm biotinylated internal control. Streptavidin-coated Dynabeads bind selectively to the desired target (5′-biotinylated primer), forming a magnetic bead-targeted complex. The complex was separated from the suspension using a Dynal MPC magnet and washed several times with 2×SSC buffer containing 0.1% SDS to eliminate [α-^32P]-dGTP background. Telomerase reaction products were separated from the magnetic beads by protein denaturation with 5.7 M guanidine-HCl at 90° C. for 30 min. After ethanol precipitation, products were resolved on denaturating 10% polyacrylamide gel.

T1 sequence (P11388 whole entry): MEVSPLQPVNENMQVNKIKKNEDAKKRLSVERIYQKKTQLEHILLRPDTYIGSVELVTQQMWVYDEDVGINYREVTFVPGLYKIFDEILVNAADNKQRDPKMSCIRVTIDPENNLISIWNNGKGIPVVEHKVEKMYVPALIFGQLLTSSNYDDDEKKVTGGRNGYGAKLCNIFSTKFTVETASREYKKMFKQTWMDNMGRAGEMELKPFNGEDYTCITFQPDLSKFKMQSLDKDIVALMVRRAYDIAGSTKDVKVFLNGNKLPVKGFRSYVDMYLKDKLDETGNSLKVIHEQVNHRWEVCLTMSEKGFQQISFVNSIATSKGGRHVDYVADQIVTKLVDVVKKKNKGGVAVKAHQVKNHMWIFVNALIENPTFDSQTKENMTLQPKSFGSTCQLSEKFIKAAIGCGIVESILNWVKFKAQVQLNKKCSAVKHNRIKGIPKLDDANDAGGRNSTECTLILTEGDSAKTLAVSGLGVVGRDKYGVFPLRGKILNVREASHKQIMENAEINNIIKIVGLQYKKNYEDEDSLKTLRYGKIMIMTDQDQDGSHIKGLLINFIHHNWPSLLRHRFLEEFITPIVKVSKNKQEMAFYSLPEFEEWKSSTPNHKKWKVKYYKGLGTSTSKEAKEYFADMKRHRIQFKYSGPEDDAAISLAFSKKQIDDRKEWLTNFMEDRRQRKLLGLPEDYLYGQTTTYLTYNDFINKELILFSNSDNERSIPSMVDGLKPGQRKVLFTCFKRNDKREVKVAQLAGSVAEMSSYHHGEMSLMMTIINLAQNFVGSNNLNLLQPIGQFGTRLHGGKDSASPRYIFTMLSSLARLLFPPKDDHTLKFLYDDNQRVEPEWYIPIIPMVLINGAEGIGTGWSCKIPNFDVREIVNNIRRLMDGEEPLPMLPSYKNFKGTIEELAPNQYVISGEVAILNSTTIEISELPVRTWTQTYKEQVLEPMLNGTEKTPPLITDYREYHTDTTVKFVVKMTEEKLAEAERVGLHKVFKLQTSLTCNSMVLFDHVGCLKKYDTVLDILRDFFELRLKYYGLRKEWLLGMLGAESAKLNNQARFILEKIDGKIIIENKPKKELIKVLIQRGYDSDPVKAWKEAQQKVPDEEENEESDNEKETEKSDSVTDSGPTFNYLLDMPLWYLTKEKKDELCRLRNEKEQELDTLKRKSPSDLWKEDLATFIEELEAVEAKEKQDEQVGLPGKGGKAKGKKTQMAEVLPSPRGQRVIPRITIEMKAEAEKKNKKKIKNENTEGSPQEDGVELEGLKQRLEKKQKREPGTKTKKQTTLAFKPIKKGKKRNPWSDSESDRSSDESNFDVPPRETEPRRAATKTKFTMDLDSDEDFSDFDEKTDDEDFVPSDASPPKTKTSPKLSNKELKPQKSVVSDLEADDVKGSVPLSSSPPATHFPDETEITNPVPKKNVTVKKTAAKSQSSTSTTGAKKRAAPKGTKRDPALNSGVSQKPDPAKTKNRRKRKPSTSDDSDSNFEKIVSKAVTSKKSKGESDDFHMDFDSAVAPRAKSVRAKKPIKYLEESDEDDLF

IC50 (human topoisomerase II)	IC50 (B16 melanoma)	IC50 (DU-145 prostate)	IC50 (H226 non-small-cell lung)	IC50 (HT-29 colon)	IC50 (MDA-231 breast)	IC50 (Raji lymphoma)	SMILES	DNA unwinding concn (supercoiled pHOT1 DNA)	upfield shift of G6 imino resonance [1]	telomerase inhibition (qualitative) (human telomerase)
1.22 µM	0.68 ± 0.05 µM	0.36 ± 0.12 µM	2.4 ± 0.1 µM	0.36 ± 0.04 µM	0.35 ± 0.06 µM	0.16 ± 0.07 µM	Cl.NC1CCN(c2c(F)cc3c(=O)c(C(=O)O)cn4c3c2Oc2ccc3ccccc3c2-4)C1 (stereo not drawn) [Compound 1b, 1-(3-Aminopyrrolidin-1-yl)-2-fluoro-4-oxo-4H-pyrido[3,2,1-k,l]-benzo[h]-phenoxazine-5-carboxylic Acid]	35 µM		
9.6 µM	2.1 ± 0.3 µM	0.84 ± 0.27 µM	2.1 ± 0.2 µM	2 ± 0.2 µM	2.2 ± 0.3 µM	0.8 ± 0.05 µM	O=C(O)c1cn2c3c(c(N4CCNCC4)c(F)cc3c1=O)Oc1ccc3ccccc3c1-2 [Compound 4, 1-(Piperazin-1-yl)-2-fluoro-4-oxo-4H-pyrido[3,2,1-k,l]-benzo[h]phenoxazine-5-carboxylic Acid]	>100 µM		
							O=C1c2ccc3c4ccc5c6c(ccc(c7ccc(c2c37)C(=O)N1CCN1CCCCC1)c64)C(=O)N(CCN1CCCCC1)C5=O [N,N′-bis(2-piperdinoethyl)-3,4,9,10-perylenetetracarboxylic acid diimide]		> 0.2 ppm	
0.49 µM	0.18 ± 0.02 µM	0.064 ± 0.007 µM	0.027 ± 0.004 µM	0.051 ± 0.006 µM	0.084 ± 0.007 µM	0.02 ± 0.004 µM	Cl.NC1CCN(c2c(F)cc3c(=O)c(C(=O)O)cn4c3c2Oc2c-4ccc3ccccc23)C1 (stereo not drawn) [Compound 2c, 1-(3-Aminopyrrolidin-1-yl)-2-fluoro-4-oxo-4H-pyrido[3,2,1-k,l]-benzo[f]-phenoxazine-5-carboxylic Acid]	10 µM		
0.64 µM	0.045 ± 0.048 µM	0.075 ± 0.032 µM	> 100 µM	6.8 ± 1.8 µM	> 1000 µM	0.0072 ± 0.0076 µM	O=C(O)c1cn2c3c(c(N4CCNCC4)c(F)cc3c1=O)Oc1cc3ccccc3cc1-2 [Compound 6, 1-(Piperazin-1-yl)-2-fluoro-4-oxo-4H-pyrido[3,2,1-k,l]-benzo[g]phenoxazine-5-carboxylic Acid]	>100 µM		
0.77 µM	0.44 ± 0.06 µM	0.2 ± 0.03 µM	0.14 ± 0.01 µM	0.18 ± 0.01 µM	0.15 ± 0.04 µM	0.086 ± 0.006 µM	NC1CCN(c2c(F)cc3c(=O)c(C(=O)O)cn4c3c2Oc2ccc3ccccc3c2-4)C1 (racemic) [Compound 1a, 1-(3-Aminopyrrolidin-1-yl)-2-fluoro-4-oxo-4H-pyrido[3,2,1-k,l]-benzo[h]-phenoxazine-5-carboxylic Acid]			
0.77 µM	0.1 ± 0.01 µM	0.025 ± 0.009 µM	0.004 ± 0.002 µM	0.028 ± 0.005 µM	0.023 ± 0.004 µM	0.038 ± 0.006 µM	NC1CCN(c2c(F)cc3c(=O)c(C(=O)O)cn4c3c2Oc2cc3ccccc3cc2-4)C1 (racemic) [Compound 3a, 1-(3-Aminopyrrolidin-1-yl)-2-fluoro-4-oxo-4H-pyrido[3,2,1-k,l]-benzo[g]-phenoxazine-5-carboxylic Acid]			
0.72 µM	0.13 ± 0.02 µM	0.14 ± 0.01 µM	0.13 ± 0.01 µM	0.27 ± 0.04 µM	0.19 ± 0.04 µM	0.082 ± 0.008 µM	Cl.NC1CCN(c2c(F)cc3c(=O)c(C(=O)O)cn4c3c2Oc2ccc3ccccc3c2-4)C1 (stereo not drawn) [Compound 1c, 1-(3-Aminopyrrolidin-1-yl)-2-fluoro-4-oxo-4H-pyrido[3,2,1-k,l]-benzo[h]-phenoxazine-5-carboxylic Acid]	19 µM		
0.42 µM	0.14 ± 0.015 µM	0.048 ± 0.008 µM	0.022 ± 0.015 µM	0.022 ± 0.003 µM	0.021 ± 0.002 µM	0.032 ± 0.005 µM	Cl.NC1CCN(c2c(F)cc3c(=O)c(C(=O)O)cn4c3c2Oc2cc3ccccc3cc2-4)C1 (stereo not drawn) [Compound 3b, 1-(3-Aminopyrrolidin-1-yl)-2-fluoro-4-oxo-4H-pyrido[3,2,1-k,l]-benzo[g]-phenoxazine-5-carboxylic Acid]	15 µM		
0.44 µM	0.02 ± 0.006 µM	0.03 ± 0.006 µM	0.014 ± 0.002 µM	0.023 ± 0.003 µM	0.01 ± 0.002 µM	0.029 ± 0.005 µM	Cl.NC1CCN(c2c(F)cc3c(=O)c(C(=O)O)cn4c3c2Oc2cc3ccccc3cc2-4)C1 (stereo not drawn) [Compound 3c, 1-(3-Aminopyrrolidin-1-yl)-2-fluoro-4-oxo-4H-pyrido[3,2,1-k,l]-benzo[g]-phenoxazine-5-carboxylic Acid]	13 µM		
0.55 µM	0.04 ± 0.004 µM	0.017 ± 0.007 µM	0.022 ± 0.002 µM	0.03 ± 0.003 µM	0.027 ± 0.002 µM	0.018 ± 0.001 µM	Cl.NC1CCN(c2c(F)cc3c(=O)c(C(=O)O)cn4c3c2Oc2c-4ccc3ccccc23)C1 (racemic) [Compound 2a, 1-(3-Aminopyrrolidin-1-yl)-2-fluoro-4-oxo-4H-pyrido[3,2,1-k,l]-benzo[f]-phenoxazine-5-carboxylic Acid]			dual-acting
1.84 µM	0.65 ± 0.06 µM	0.14 ± 0.04 µM	0.2 ± 0.03 µM	0.36 ± 0.09 µM	0.38 ± 0.05 µM	0.21 ± 0.04 µM	O=C(O)c1cn2c3c(c(N4CCNCC4)c(F)cc3c1=O)Oc1c-2ccc2ccccc12 [Compound 5, 1-(Piperazin-1-yl)-2-fluoro-4-oxo-4H-pyrido[3,2,1-k,l]-benzo[f]phenoxazine-5-carboxylic Acid]	>100 µM		
